“Also recorded” adds a separate entry of the source. Where two headings read alike, the source gives them in different places.
Tests used:
AmOctα2R-HA [1] = molecular target: T1, AmOctα2R-HA (Apis mellifera, UniProt A0A7M7FZR9); test: Antagonist concentration-response on tyramine-activated AmOctα2R-HA in flpTM cells; type: cell-based
Procedure: The ability of various potential antagonists for impairing AmOctα2R-HA activity was assessed in a similar way. […] Ligand concentrations that led to the half-maximal inhibition of AmOctα2R-HA (IC50) were determined from the concentration–response curves and are summarized in Table 2.
(§1) For AmOctα2R-HA expression and pharmacological analysis, we used a human embryonic kidney (HEK293; flpIn cells; Invitrogen/ThermoFisher Scientific; #750-07)-based cell line that was transfected with a gene encoding a variant of the A2-subunit of the olfactory CNG ion channel (flpTM cells), provided by Sibion biosciences, Jülich, Germany. These flpTM cells were transfected with 3 µg, 8 µg, or 12 µg of the pcAmOctα2R-HA construct by a modified calcium phosphate method following a previously established protocol. Transfected cells were selected in the presence of the antibiotics G418 (1 mg/mL) and hygromycin (100 µg/mL). Expression of AmOctα2R-HA was monitored by Western blotting and immunocytochemistry using anti-HA antibodies (Roche/Sigma-Aldrich/Merck).
(§2) A stably transfected cell line was used to examine AmOctα2R-HA receptor activity by Ca^2+ imaging. Control measurements were performed in the parental (flpTM) cell line. Changes in [cAMP]i were registered indirectly via co-expressed CNG channels that were opened by cAMP and cause an influx of extracellular Ca^2+ [30, 32, 48]. Changes in [Ca^2+]i were monitored with the Ca^2+-sensitive fluorescent dye Fluo-4. Cells were grown in 96-well dishes to a density of approximately 2 × 10^4 cells per well and were loaded at room temperature with Fluo-4 AM as described previously. After 90 min, the loading solution was substituted with a dye-free extracellular solution (ECS; 120 mM NaCl, 5 mM KCl, 2 mM MgCl2, 2 mM CaCl2, 10 mM HEPES, and 10 mM glucose, pH 7.4 (NaOH)) containing 100 µM IBMX. The plate was transferred into a fluorescence reader (FLUOstar Omega, BMG Labtech, Ortenberg, Germany) to monitor Fluo-4 fluorescence. The excitation wavelength was 485 nm. Fluorescence emission was detected at 520 nm. Concentration series of various biogenic amines and synthetic receptor ligands were added, once Fluo-4 fluorescence intensity reached a stable value in each well. The changes in Fluo-4 fluorescence were recorded automatically. Concentration–response curves were established from at least three independent experiments with quadruplicate measurements.

AmOctα2R-HA [2] = molecular target: T1, AmOctα2R-HA; test: Antagonist concentration-response on octopamine-activated AmOctα2R-HA in flpTM cells; type: cell-based
Procedure: as §1, §2
Table S3. Mean values for half-maximal inhibition (IC50 [M] and log IC50 ± SD) for substances with antagonistic activity on octopamine-activated AmOctα2R. For each substance at least […] independent experiments with quadruplicate measurements were performed. Values were obtained from non-linear fitting of the data from concentration-response curves (GraphPad Prism 5.04).
Substance IC50 [M] log IC50 […]
Biol Direct. 2008, 3, 20. […]
Int.

AmOctα2R-HA [3] = molecular target: T1, AmOctα2R-HA; test: Agonist effects on NKH 477-stimulated cAMP (Fluo-4 Ca2+ fluorescence via co-expressed CNG channel) in AmOctα2R-HA-expressing flpTM cells; type: cell-based; settings: for effect on NKH 477-stimulated cAMP production (Ca2+-dependent fluorescence signal): biogenic amines 10^−6 M each
Procedure: as §1, §2

DmOctα2R = tested on: DmOctα2R; design: method as in PMID 28942992; settings: dose-dependent activation of DmOctα2R; cited from earlier work
[4] = tested on: nontransfected flpTM cells; test: Control measurements of Fluo-4 fluorescence in nontransfected (parental) flpTM cells; type: cell-based, human
Procedure: as §1
A stably transfected cell line was used to examine AmOctα2R-HA receptor activity by Ca^2+ imaging. […] Changes in [Ca^2+]i were monitored with the Ca^2+-sensitive fluorescent dye Fluo-4. […] The plate was transferred into a fluorescence reader (FLUOstar Omega, BMG Labtech, Ortenberg, Germany) to monitor Fluo-4 fluorescence. […] Fluorescence emission was detected at 520 nm. Concentration series of various biogenic amines and synthetic receptor ligands were added, once Fluo-4 fluorescence intensity reached a stable value in each well. The changes in Fluo-4 fluorescence were recorded automatically. […]

[5] = tyramine-activated (10 µM tyramine)
[6] = tyramine-activated (10 µM tyramine), 10 µM NKH 477, 100 µM IBMX, read-out: IC50 [M], mean value for half-maximal inhibition
[7] = block of the action of octopamine, second value of the pair, read-out: IC50
[8] = log IC50 ± SD, log of IC50 in M, octopamine-activated (3 × 10^−7 M octopamine)
[9] = log of IC50 in M, tyramine-activated (10 µM tyramine), read-out: logIC50 ± SD (converted)
[10] = log of IC50 in M, octopamine-activated (3 × 10^−7 M octopamine), read-out: log IC50 ± SD (converted)
[11] = log of EC50 in M, mean of all experiments, octopamine n = 7, tyramine n = 11, read-out: logEC50 ± SD, mean value (converted)
[12] = log of EC50 in M, single concentration-response curve (Figures 4 and 6), read-out: logEC50 ± SD, typical experiment (converted)
[13] = mean of all experiments, octopamine n = 7, tyramine n = 11, 10 µM NKH 477, 100 µM IBMX, read-out: EC50 [M], mean value for half-maximal stimulation
[14] = single concentration-response curve (Figures 4 and 6), octopamine fitted from 10^−9 M to 3 × 10^−6 M, read-out: EC50 (half-maximal reduction of cAMP / activation), typical experiment

T1 sequence (A0A7M7FZR9 entry or part of it): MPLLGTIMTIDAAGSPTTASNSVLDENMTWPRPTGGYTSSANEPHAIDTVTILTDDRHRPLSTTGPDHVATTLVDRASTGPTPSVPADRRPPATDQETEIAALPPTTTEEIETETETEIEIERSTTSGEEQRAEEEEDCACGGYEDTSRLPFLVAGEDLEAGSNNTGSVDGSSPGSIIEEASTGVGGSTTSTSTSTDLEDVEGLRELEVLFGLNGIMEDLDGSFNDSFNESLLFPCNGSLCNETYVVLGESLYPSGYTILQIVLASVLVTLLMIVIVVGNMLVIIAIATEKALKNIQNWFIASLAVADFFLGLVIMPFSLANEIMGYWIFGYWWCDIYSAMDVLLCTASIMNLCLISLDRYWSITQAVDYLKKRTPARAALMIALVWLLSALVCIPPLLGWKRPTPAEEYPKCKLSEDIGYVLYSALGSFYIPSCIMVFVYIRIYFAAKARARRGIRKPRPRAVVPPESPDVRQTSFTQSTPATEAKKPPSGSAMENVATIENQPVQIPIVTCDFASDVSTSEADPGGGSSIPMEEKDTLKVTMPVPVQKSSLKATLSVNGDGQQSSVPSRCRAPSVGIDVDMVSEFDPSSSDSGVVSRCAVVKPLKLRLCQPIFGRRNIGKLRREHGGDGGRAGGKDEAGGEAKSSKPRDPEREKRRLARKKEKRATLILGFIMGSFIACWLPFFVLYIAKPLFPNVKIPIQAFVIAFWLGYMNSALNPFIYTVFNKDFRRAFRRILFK

NCCc1c[nH]c2ccc(C(N)=O)cc12 [5-CT, 5-carboxamidotryptamine]
logIC50 ± SD (AmOctα2R-HA [1]; log of IC50 in M, tyramine-activated (10 µM tyramine)): −8.48 ± 0.20 | Maximal Inhibition [%] (AmOctα2R-HA [1]; [5]): 10.8% | IC50 (AmOctα2R-HA [1]; [6]): 4.16e-09 M | IC50 (AmOctα2R-HA [2]; [7]): 0.00027 µM | log IC50 ± SD (AmOctα2R-HA [2]; log of IC50 in M, octopamine-activated (3 × 10^−7 M octopamine)): -9.57 ± 0.21

NCCc1ccc(O)c(O)c1 [dopamine]
effect on NKH 477-stimulated cAMP production (Ca2+-dependent fluorescence signal) (AmOctα2R-HA [3]): no effect

COC(=O)[C@@H]1[C@H]2C[C@H]3c4[nH]c5ccccc5c4CCN3C[C@@H]2CC[C@@H]1O [yohimbine]
IC50 (AmOctα2R-HA [1]): 7.59e-08 M | Maximal Inhibition [%] (AmOctα2R-HA [1]; [5]): 14.3% | IC50 (AmOctα2R-HA [2]; [8]): 0.363 µM

COc1ccc2[nH]cc(CCN)c2c1 [5-MT, 5-methoxytryptamine]
IC50 (AmOctα2R-HA [1]; IC50, block of the action of tyramine, first value of the printed pair): 2.06e-08 M | IC50 (AmOctα2R-HA [1]; logIC50 ± SD, log of IC50 in M, tyramine-activated (10 µM tyramine)): 1.91e-08 M | Maximal Inhibition [%] (AmOctα2R-HA [1]; [5]): 20.3% | IC50 (AmOctα2R-HA [2]; IC50, block of the action of octopamine, second value of the pair): 0.836 µM | IC50 (AmOctα2R-HA [2]; [8]): 0.832 µM

NCCc1c[nH]c2ccc(O)cc12 [serotonin, 5-hydroxytryptamine]
activation of AmOctα2R (AmOctα2R-HA [3]): failed to activate | effect on NKH 477-stimulated cAMP production (Ca2+-dependent fluorescence signal) (AmOctα2R-HA [3]): no effect | EC50 (DmOctα2R): 1.04 µM

Cc1nn(C)c(C)c1-c1cccc2c1CC[C@H](N(C)C)C2 [AS-19]
IC50 [M], mean value for half-maximal inhibition (AmOctα2R-HA [1]; tyramine-activated (10 µM tyramine), 10 µM NKH 477, 100 µM IBMX): did not show any effect; also recorded: no effect

CCCN(CCC)C1CCc2cccc(O)c2C1 (stereo not drawn) [8-OH-DPAT, 8-Hydroxy-2-(dipropylamino)tetralin]
IC50 (AmOctα2R-HA [1]): 7.08e-07 M | Maximal Inhibition [%] (AmOctα2R-HA [1]; [5]): 7.21% | IC50 (AmOctα2R-HA [2]; [8]): 0.166 µM

NC1=NCC2c3ccccc3Cc3ccccc3N12 (stereo not drawn) [epinastine]
IC50 (AmOctα2R-HA [1]; [9]): 1.78e-08 M | Maximal Inhibition [%] (AmOctα2R-HA [1]; [5]): 17.31% | IC50 (AmOctα2R-HA [2]; [10]): 0.0162 µM

NCC(O)c1ccc(O)cc1 (stereo not drawn) [octopamine]
octopamine concentration at which an increase in the fluorescence signal was observed (AmOctα2R-HA [3]; AmOctα2R-HA-expressing flpTM cells, U-shaped curve, 10 µM NKH 477, 100 µM IBMX): ≥ 3 µM | Emax at 1 µM (AmOctα2R-HA [3]; at 10^−6 M octopamine, relative to 10 µM NKH 477 (=100%), read-out: maximal reduction of cAMP synthesis): ~25% | effect on NKH 477-stimulated cAMP production (Ca2+-dependent fluorescence signal) (AmOctα2R-HA [3]): decrease in the Ca^2+-dependent fluorescence signal | EC50 (AmOctα2R-HA [3]; [11]): 3.72e-08 M | EC50 (AmOctα2R-HA [3]; [12]): 1.17e-07 M | EC50 (AmOctα2R-HA [3]; [13]): 5.87e-08 M | specificity for octopamine over tyramine (difference in EC50) (AmOctα2R-HA [3]; ratio of EC50 values): ~ 30 fold | EC50 (AmOctα2R-HA [3]; [14]): 1.17e-07 M | octopamine concentration leading to an increase in Fluo-4 fluorescence ([4]; in the presence of NKH 477): ≥ 300 nM

O=C(c1ccc(F)cc1)C1CCN(CCn2c(=O)[nH]c3ccccc3c2=O)CC1 [ketanserin]
IC50 (AmOctα2R-HA [1]; [9]): 5.13e-07 M | Maximal Inhibition [%] (AmOctα2R-HA [1]; [5]): 17.11% | IC50 (AmOctα2R-HA [2]; [10]): 0.324 µM

Cc1ccc(N(CC2=NCCN2)c2cccc(O)c2)cc1 [phentolamine]
IC50 (AmOctα2R-HA [1]; [9]): 5.01e-09 M | Maximal Inhibition [%] (AmOctα2R-HA [1]; [5]): 16.1% | IC50 (AmOctα2R-HA [1]; [6]): 5.6e-09 M | IC50 (AmOctα2R-HA [2]; [7]): 0.00821 µM | IC50 (AmOctα2R-HA [2]; [10]): 0.00813 µM

NCCc1ccc(O)cc1 [tyramine]
effect on NKH 477-stimulated cAMP production (Ca2+-dependent fluorescence signal) (AmOctα2R-HA [3]): decrease in the Ca^2+-dependent fluorescence signal | EC50 (AmOctα2R-HA [3]; [11]): 1.66e-06 M | EC50 (AmOctα2R-HA [3]; [12]): 1.63e-06 M | EC50 (AmOctα2R-HA [3]; [13]): 1.85e-06 M | Emax (AmOctα2R-HA [3]; saturated at tyramine concentration of ≥3 × 10^−5 M, relative to 10 µM NKH 477 (=100%), read-out: reduction of cAMP signal at saturation): ~17% | EC50 (AmOctα2R-HA [3]; [14]): 1.63e-06 M | change in the fluorescence signal upon application [4]: no change in the fluorescence signal
